For 39 compounds, IC50 results are on record in patent publication US8481750B2 (Boehringer Ingelheim International GmbH, priority 2009, dated 2013).

In this experiment the target is LFA-1 binding to ICAM-1 (Homo sapiens, UniProt P05107+P20701). The experiment is described as follows: Inhibition of LFA-1 binding to ICAM-1 (LFA-1/Biotin-sICAM-1 AlphaScreen molecular assay). To be noted: highest compound concentration 1 μM in 1% DMSO, 37° C., 90 minutes. From the text: Assay to Determine Inhibition of LFA-1 Binding to ICAM-1
Sequence of LFA-1 binding to ICAM-1 (P20701 26-1170): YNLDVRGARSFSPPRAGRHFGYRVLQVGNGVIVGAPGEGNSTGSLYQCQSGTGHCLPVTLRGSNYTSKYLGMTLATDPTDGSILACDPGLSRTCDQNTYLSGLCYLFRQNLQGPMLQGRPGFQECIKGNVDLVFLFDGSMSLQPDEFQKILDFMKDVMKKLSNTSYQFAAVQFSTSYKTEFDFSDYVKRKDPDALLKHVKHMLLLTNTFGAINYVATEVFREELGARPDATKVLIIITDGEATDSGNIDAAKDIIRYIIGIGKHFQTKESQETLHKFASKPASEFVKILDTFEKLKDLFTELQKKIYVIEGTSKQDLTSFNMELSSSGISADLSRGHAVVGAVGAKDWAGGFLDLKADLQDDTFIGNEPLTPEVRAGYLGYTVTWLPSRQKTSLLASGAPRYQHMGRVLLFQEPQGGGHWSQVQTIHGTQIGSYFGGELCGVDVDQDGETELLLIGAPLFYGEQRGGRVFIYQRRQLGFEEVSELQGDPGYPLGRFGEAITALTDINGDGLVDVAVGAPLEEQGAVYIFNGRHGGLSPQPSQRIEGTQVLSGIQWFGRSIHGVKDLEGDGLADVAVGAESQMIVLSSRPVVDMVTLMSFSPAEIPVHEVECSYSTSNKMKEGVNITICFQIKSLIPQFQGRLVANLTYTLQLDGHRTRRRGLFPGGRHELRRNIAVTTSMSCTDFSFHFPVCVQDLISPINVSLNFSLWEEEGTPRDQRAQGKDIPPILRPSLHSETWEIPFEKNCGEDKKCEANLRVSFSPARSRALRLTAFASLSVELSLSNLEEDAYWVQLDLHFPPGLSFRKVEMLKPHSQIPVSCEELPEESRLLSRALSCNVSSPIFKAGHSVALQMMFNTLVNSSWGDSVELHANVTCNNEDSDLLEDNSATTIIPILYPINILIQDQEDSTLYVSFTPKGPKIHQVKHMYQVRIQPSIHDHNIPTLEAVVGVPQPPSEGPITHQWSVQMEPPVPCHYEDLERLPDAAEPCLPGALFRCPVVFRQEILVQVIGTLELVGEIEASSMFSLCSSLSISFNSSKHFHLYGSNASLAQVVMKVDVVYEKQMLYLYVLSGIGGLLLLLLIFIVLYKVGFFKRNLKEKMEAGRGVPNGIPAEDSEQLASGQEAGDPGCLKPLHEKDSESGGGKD
Sequence of LFA-1 binding to ICAM-1 (P05107 23-769): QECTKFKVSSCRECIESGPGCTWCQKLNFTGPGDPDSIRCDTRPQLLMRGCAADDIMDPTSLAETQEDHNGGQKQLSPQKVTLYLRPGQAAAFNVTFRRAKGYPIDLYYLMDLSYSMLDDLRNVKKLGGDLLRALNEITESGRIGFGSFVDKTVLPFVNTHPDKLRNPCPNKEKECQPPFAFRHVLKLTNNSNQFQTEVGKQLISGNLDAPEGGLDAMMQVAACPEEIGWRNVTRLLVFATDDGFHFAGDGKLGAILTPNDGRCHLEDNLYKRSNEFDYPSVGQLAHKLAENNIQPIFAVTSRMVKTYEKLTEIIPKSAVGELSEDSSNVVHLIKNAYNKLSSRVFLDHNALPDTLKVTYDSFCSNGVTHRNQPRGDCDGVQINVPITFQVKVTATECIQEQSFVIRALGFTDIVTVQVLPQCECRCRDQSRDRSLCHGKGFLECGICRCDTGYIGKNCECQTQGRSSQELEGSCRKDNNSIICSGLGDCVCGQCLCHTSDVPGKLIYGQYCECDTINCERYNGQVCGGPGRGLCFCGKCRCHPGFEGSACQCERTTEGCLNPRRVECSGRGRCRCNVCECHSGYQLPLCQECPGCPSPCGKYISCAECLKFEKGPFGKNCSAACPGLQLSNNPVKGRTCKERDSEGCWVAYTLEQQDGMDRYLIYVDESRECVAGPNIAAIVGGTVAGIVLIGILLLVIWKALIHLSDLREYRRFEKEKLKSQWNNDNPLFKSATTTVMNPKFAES
This assay protocol is designed to study the direct antagonism, by a test compound, of the interaction of ICAM-1 with the Leukointegrin CD18/CD11a (LFA-1).
The LFA-1/Biotin-sICAM-1 molecular assay measures the ability of test compounds to inhibit binding of LFA-1 to Biotinylated-sICAM using AlphaScreen technology (Ref: Wilson, J, Rossi, C P, Carboni, S, Fremaux, C, Perrin, D, Soto, C, Kosco-Vilbois, M, and Scheer, A: A Homogeneous 384-Well High-Throughput Binding Assay for a TNF Receptor Using Alphascreen Technology. J Biomol Screen 2003; 8:522-532) that uses TS2/4(anti-LFA-1)-custom conjugated AlphaLisa acceptor beads and streptavidin-coated donor beads from PerkinElmer. The assay was performed in white OptiPlates-384 in a volume of 60 μL using assay buffer (Dulbecco's PBS containing calcium and magnesium, 2 mM MgCl2, 0.1 mM PMSF, 0.1% BSA, pH 7.1). To each well, Biotin-sICAM was added followed by purified LFA-1 (in buffer of 50 mM triethylamine, 150 mM NaCl, 1% beta octylglucoside, 2 mM MgCl2 neutralized to pH with 1M Tris-HCl, pH 7.5). For compound testing, compound was added in 5 uL to the above in 25 uL. LFA-1 and Biotin-sICAM-1 were used at concentrations that would yield a signal to background ratio of 8-10. The highest concentration of compound was 1 μM in 1% DMSO. Positive controls were wells without compound containing LFA-1, while blanks were wells without both compound and LFA-1. Plates were mixed and incubated at 37° C. for 90 minutes. This was followed by addition of 15 μL/well TS2/4-congugated acceptor beads diluted in PBS containing 0.1% BSA for a final concentration of 10 μg/mL. The plates were mixed and incubated in the dark for 30 minutes at room temperature followed by addition of 15 μL/well streptavidin-coated donor beads diluted in PBS containing 0.1% BSA at a final concentration of 15 μg/mL. The plates were mixed and incubated in the dark for 60 minutes at room temperature and then read on an EnVision Multilabel Reader using AlphaScreen 384-well OptiPlate protocol.

`C[C@@]1(Cc2ccc(C#N)cc2)C(=O)N(c2cc(Cl)cc(Cl)c2)c2ncc(C(=O)NC3(C(=O)NC4(c5cc(C(=O)NCCc6ccccn6)ccn5)CC4)CC3)n21` [compound 6]: the IC50 came to 0.82 nM. Compound `C[C@@]1(Cc2ccc(C#N)cc2)C(=O)N(c2cc(Cl)cc(Cl)c2)c2ncc(C(=O)NC3(C(=O)NC4(c5ccc(C(=O)N6CCCC(CO)C6)cn5)CC4)CC3)n21` (stereo partly drawn) [compound 29] registered an IC50 of 0.43 nM. On to `C[C@@]1(Cc2ccc(C#N)cc2)C(=O)N(c2cc(Cl)cc(Cl)c2)c2ncc(C(=O)NC3(C(=O)NC4(c5ccc(C(=O)N6CC[C@@H](O)C6)cn5)CC4)CC3)n21` [compound 5], for which the IC50 was found to be 0.59 nM. With `CC(C)(CO)NC(=O)c1ccnc(C2(NC(=O)C3(NC(=O)c4cnc5n4[C@](C)(Cc4ccc(C#N)cc4)C(=O)N5c4cc(Cl)cc(Cl)c4)CC3)CC2)c1` [compound 105], the IC50 was determined as 0.65 nM. The result for `CC(C)(O)CNC(=O)c1ccnc(C2(NC(=O)C3(NC(=O)c4cnc5n4[C@](C)(Cc4ccc(C#N)cc4)C(=O)N5c4cc(Cl)cc(Cl)c4)CC3)CC2)c1` [compound 69] reads 0.47 nM.

Compound `CN(C)C(=O)c1ccc(C2(NC(=O)C3(NC(=O)c4cnc5n4[C@](C)(Cc4ccc(C#N)cc4)C(=O)N5c4cc(Cl)cc(Cl)c4)CC3)CC2)nc1` [compound 124] yielded an IC50 of 2.1 nM. In the case of `CC(NC(=O)c1ccc(C2(NC(=O)C3(NC(=O)c4cnc5n4[C@](C)(Cc4ccc(C#N)cc4)C(=O)N5c4cc(Cl)cc(Cl)c4)CC3)CC2)nc1)c1ccccn1` (stereo partly drawn) [compound 160] it was 0.37 nM; in that of `CN(C)CCNC(=O)c1ccnc(C2(NC(=O)C3(NC(=O)c4cnc5n4[C@](C)(Cc4ccc(C#N)cc4)C(=O)N5c4cc(Cl)cc(Cl)c4)CC3)CC2)c1` [compound 62], 1.1 nM; in that of `C[C@@]1(Cc2ccc(C#N)cc2)C(=O)N(c2cc(Cl)cc(Cl)c2)c2ncc(C(=O)NC3(C(=O)NC4(c5ccc(C(=O)N6CCCC6)cn5)CC4)CC3)n21` [compound 119], 0.72 nM. The result for `CC(=O)N(C)C1CCN(C(=O)c2ccc(C3(NC(=O)C4(NC(=O)c5cnc6n5[C@](C)(Cc5ccc(C#N)cc5)C(=O)N6c5cc(Cl)cc(Cl)c5)CC4)CC3)nc2)C1` (stereo partly drawn) [compound 116] reads 0.75 nM; that for `C[C@@]1(Cc2ccc(C#N)cc2)C(=O)N(c2cc(Cl)cc(Cl)c2)c2ncc(C(=O)NC3(C(=O)NC4(c5cc(C(=O)NCCC(N)=O)ccn5)CC4)CC3)n21` [compound 107], 0.3 nM; that for `CC(=O)NCCNC(=O)c1ccc(C2(NC(=O)C3(NC(=O)c4cnc5n4[C@](C)(Cc4ccc(C#N)cc4)C(=O)N5c4cc(Cl)cc(Cl)c4)CC3)CC2)nc1` [compound 121], 0.37 nM. In the case of `C[C@@]1(Cc2ccc(C#N)cc2)C(=O)N(c2cc(Cl)cc(Cl)c2)c2ncc(C(=O)NC3(C(=O)NC4(c5cc(C(=O)NCC(O)CO)ccn5)CC4)CC3)n21` (stereo partly drawn) [compound 96] it was 0.74 nM; in that of `C[C@@]1(Cc2ccc(C#N)cc2)C(=O)N(c2cc(Cl)cc(Cl)c2)c2ncc(C(=O)NC3(C(=O)NC4(c5cc(C(=O)NCCn6ccnc6)ccn5)CC4)CC3)n21` [compound 159], 0.42 nM. `C[C@@]1(Cc2ccc(C#N)cc2)C(=O)N(c2cc(Cl)cc(Cl)c2)c2ncc(C(=O)NC3(C(=O)NC4(c5cccc(C(=O)N6CCC6)n5)CC4)CC3)n21` [compound 104] returned an IC50 of 2.3 nM. The result for `C[C@@]1(Cc2ccc(C#N)cc2)C(=O)N(c2cc(Cl)cc(Cl)c2)c2ncc(C(=O)NC3(C(=O)NC4(c5ccc(C(=O)NCCc6ccncc6)cn5)CC4)CC3)n21` [compound 169] reads 2.5 nM.

Turning to `C[C@H](NC(=O)c1ccnc(C2(NC(=O)C3(NC(=O)c4cnc5n4[C@](C)(Cc4ccc(C#N)cc4)C(=O)N5c4cc(Cl)cc(Cl)c4)CC3)CC2)c1)c1ccccc1` [compound 10], the IC50 is 6.2 nM. The result for `CC(C)(CO)NC(=O)c1ccc(C2(NC(=O)C3(NC(=O)c4cnc5n4[C@](C)(Cc4ccc(C#N)cc4)C(=O)N5c4cc(Cl)cc(Cl)c4)CC3)CC2)nc1` [compound 86] reads 0.56 nM; that for `C[C@@]1(Cc2ccc(C#N)cc2)C(=O)N(c2cc(Cl)cc(Cl)c2)c2ncc(C(=O)NC3(C(=O)NC4(c5cc(C(=O)NCc6cccnc6)ccn5)CC4)CC3)n21` [compound 72], 0.45 nM; that for `C[C@@]1(Cc2ccc(C#N)cc2)C(=O)N(c2cc(Cl)cc(Cl)c2)c2ncc(C(=O)NC3(C(=O)NC4(c5cccc(C(=O)NCc6ccccn6)n5)CC4)CC3)n21` [compound 92], 1.3 nM. In turn, `C[C@@]1(Cc2ccc(C#N)cc2)C(=O)N(c2cc(Cl)cc(Cl)c2)c2ncc(C(=O)NC3(C(=O)NC4(c5ccc(C(=O)NCCc6ccccn6)cn5)CC4)CC3)n21` [compound 93] came in with an IC50 of 0.62 nM.

Consider `C[C@@H](NC(=O)c1ccnc(C2(NC(=O)C3(NC(=O)c4cnc5n4[C@](C)(Cc4ccc(C#N)cc4)C(=O)N5c4cc(Cl)cc(Cl)c4)CC3)CC2)c1)C(N)=O` [compound 166], for which the half-inhibitory concentration (IC50) was 3 nM.

Regarding `CC(C)(NC(=O)c1ccc(C2(NC(=O)C3(NC(=O)c4cnc5n4[C@](C)(Cc4ccc(C#N)cc4)C(=O)N5c4cc(Cl)cc(Cl)c4)CC3)CC2)nc1)c1ccccc1` [compound 152], the IC50 worked out at 0.62 nM. As for `C[C@@]1(Cc2ccc(C#N)cc2)C(=O)N(c2cc(Cl)cc(Cl)c2)c2ncc(C(=O)NC3(C(=O)NC4(c5cccc(C(=O)N6CCC(C(N)=O)CC6)n5)CC4)CC3)n21` [compound 170], the IC50 amounted to 0.28 nM. The result for `C[C@@]1(Cc2ccc(C#N)cc2)C(=O)N(c2cc(Cl)cc(Cl)c2)c2ncc(C(=O)NC3(C(=O)NC4(c5cccc(C(=O)NC6CC6)n5)CC4)CC3)n21` [compound 123] reads 0.34 nM. Compound `C[C@@]1(Cc2ccc(C#N)cc2)C(=O)N(c2cc(Cl)cc(Cl)c2)c2ncc(C(=O)NC3(C(=O)NC4(c5cccc(C(=O)N6CCOCC6)n5)CC4)CC3)n21` [compound 145] showed an IC50 of 0.56 nM. The result for `C[C@@]1(Cc2ccc(C#N)cc2)C(=O)N(c2cc(Cl)cc(Cl)c2)c2ncc(C(=O)NC3(C(=O)NC4(c5cccc(C(=O)N6CCCCC6)n5)CC4)CC3)n21` [compound 16] reads 12 nM; that for `CC(O)CNC(=O)c1ccnc(C2(NC(=O)C3(NC(=O)c4cnc5n4[C@](C)(Cc4ccc(C#N)cc4)C(=O)N5c4cc(Cl)cc(Cl)c4)CC3)CC2)c1` (stereo partly drawn) [compound 146], 0.98 nM.

As to `C[C@@]1(Cc2ccc(C#N)cc2)C(=O)N(c2cc(Cl)cc(Cl)c2)c2ncc(C(=O)NC3(C(=O)NC4(c5ccc(C(=O)N6CCC[C@@H]6C(N)=O)cn5)CC4)CC3)n21` [compound 163], the IC50 is 0.65 nM.

For `C[C@@]1(Cc2ccc(C#N)cc2)C(=O)N(c2cc(Cl)cc(Cl)c2)c2ncc(C(=O)NC3(C(=O)NC4(c5ccc(C(=O)N6CCC(CO)CC6)cn5)CC4)CC3)n21` [compound 85], the IC50 was 0.34 nM. The result for `CC(NC(=O)c1cccc(C2(NC(=O)C3(NC(=O)c4cnc5n4[C@](C)(Cc4ccc(C#N)cc4)C(=O)N5c4cc(Cl)cc(Cl)c4)CC3)CC2)n1)c1ccncc1` (stereo partly drawn) [compound 151] reads 1.3 nM.

Compound `C[C@@]1(Cc2ccc(C#N)cc2)C(=O)N(c2cc(Cl)cc(Cl)c2)c2ncc(C(=O)NC3(C(=O)NC4(c5cc(C(=O)N6CCCC(CO)C6)ccn5)CC4)CC3)n21` (stereo partly drawn) [compound 80] returned an IC50 of 0.99 nM. In the case of `CC(=O)NCCNC(=O)c1ccnc(C2(NC(=O)C3(NC(=O)c4cnc5n4[C@](C)(Cc4ccc(C#N)cc4)C(=O)N5c4cc(Cl)cc(Cl)c4)CC3)CC2)c1` [compound 132] it was 0.37 nM. In turn, `CC(=O)NC1CCN(C(=O)c2ccc(C3(NC(=O)C4(NC(=O)c5cnc6n5[C@](C)(Cc5ccc(C#N)cc5)C(=O)N6c5cc(Cl)cc(Cl)c5)CC4)CC3)nc2)C1` (stereo partly drawn) [compound 158] yielded an IC50 of 0.9 nM.

In the case of `C[C@@]1(Cc2ccc(C#N)cc2)C(=O)N(c2cc(Cl)cc(Cl)c2)c2ncc(C(=O)NC3(C(=O)NC4(c5cccc(C(=O)N6CCC(CO)CC6)n5)CC4)CC3)n21` [compound 18], the IC50 came to 1.8 nM. Compound `C[C@H](CO)NC(=O)c1ccnc(C2(NC(=O)C3(NC(=O)c4cnc5n4[C@](C)(Cc4ccc(C#N)cc4)C(=O)N5c4cc(Cl)cc(Cl)c4)CC3)CC2)c1` [compound 49] showed an IC50 of 0.56 nM. On to `C[C@@]1(Cc2ccc(C#N)cc2)C(=O)N(c2cc(Cl)cc(Cl)c2)c2ncc(C(=O)NC3(C(=O)NC4(c5cccc(C(=O)N6CCC[C@H]6C(N)=O)n5)CC4)CC3)n21` [compound 28], for which the IC50 came to 2.5 nM.

As for `COCCNC(=O)c1cccc(C2(NC(=O)C3(NC(=O)c4cnc5n4[C@](C)(Cc4ccc(C#N)cc4)C(=O)N5c4cc(Cl)cc(Cl)c4)CC3)CC2)n1` [compound 75], the IC50 is 2.2 nM. The result for `C[C@@]1(Cc2ccc(C#N)cc2)C(=O)N(c2cc(Cl)cc(Cl)c2)c2ncc(C(=O)NC3(C(=O)NC4(c5cccc(C(N)=O)n5)CC4)CC3)n21` [compound 98] reads 1.1 nM.

A word on the IC50: it is the concentration needed to halve the response being measured. A low value points to greater potency.
